# Source: US20250288548A1, “INTRANASAL BACLOFEN” (THE REGENTS OF THE UNIVERSITY OF CALIFORNIA, priority 2022, published 2025)
# Experiments:
# [1] = system: patient with increased tone after explantation of intrathecal baclofen pump; experiment: Individual intranasal baclofen test dose in PICU patient; assay type: in vivo, human; settings: gablofen 2-50 mcg vials delivered intranasally as one administration; all enteral medications held
# Source text: A patient was admitted to a pediatric intensive care unit (PICU) due to increased tone after the patient had underwent surgical explantation of an intrathecal baclofen pump. The patient was on maximum doses of several enteral medications including enteral baclofen. They were given a test dose of intranasal baclofen administered in the PICU using commercially prepared intrathecal baclofen for test dose (gablofen 2-50 mcg vials delivered intranasally as one administration).
# [2] = solutions containing phosphate, sulfate, potassium, or magnesium; per U.S. Pat. No. 9,180,108 (also printed: greater than 4, 5, 6, 7 mg/mL); cited from earlier work
# [3] = at therapeutically effective intrathecal concentrations; cited from earlier work
# [4] = enteral doses ranging from 30 to 90 mg; cited from earlier work
# [5] = system: patients with new acquired brain injury; experiment: Intranasal baclofen study in about 40 hospitalized patients (measured torque response, clinical response); assay type: in vivo, human
# Source text: FIG. 1 represents the summarized results of a study of about 40 patients. Grey bars represent patients treated with nasal baclofen, and white bars represent placebo. Bars to the left (negative) represent reduced tone, and right (positive) is worse tone. The middle line is no change. Statistically significant results are provided with error bars in this figure.
# The first bar chart from left to right is baseline compared to visit 2 low dose (250 mcg). The second bar chart from left to right is baseline compared to visit 3 moderate dose (1000 mcg). The third bar chart from left to right is baseline compared to visit 4 high dose (2000 mcg). The fourth bar chart from left to right is baseline compared to visit 5 weaned off back to baseline (providing some residual effect). The p-values for the third panel, which represents the high dose are: Treatment p-value 0.004959, and Control p-value 0.232.
# Forty (40) hospitalized patients with new acquired brain injury acutely treated in the PICU have been treated with intranasal baclofen. Aqueous intranasal solutions comprising 250 mcg, 1000 mcg, and/or 2000 mcg of baclofen and […] of sodium chloride per mL exploiting the nasal pathway have delivered baclofen to the CNS by circumventing the BBB. […]
# [6] = excised bovine nasal tissues; concentration independent transport, no polarized flux; cited from earlier work
structure (smiles),measurement,setting,value
"NCC(CC(=O)O)c1ccc(Cl)cc1 (centres unmarked) [baclofen, 4-amino-3-(p-chlorophenyl) butyric acid]",change in tone after intranasal test dose,[1],Significant improvement in tone
same,concentration of baclofen that can be dissolved,[2],greater than 2 mg/mL
same,plasma concentrations with intrathecal injection relative to oral/enteral administration,[3],100 times less
same,CSF levels,[4],0.012 to 0.096 µg/mL
same,plasma levels,[4],50 to 650 ng/mL
same,response compared with enteral baclofen,"[5]; intranasal 250, 1000 and/or 2000 mcg solutions, versus maximized enteral baclofen dose (>90 mg/day)",far greater than that observed with enteral baclofen
same,sedation compared with enteral baclofen,[5]; intranasal administration,far less sedation
same,mechanism of absorption across nasal tissues,[6],primarily absorbed via simple passive diffusion
